Patent US10202361B2, “Pyridazinones as herbicides” (E I DU PONT DE NEMOURS AND COMPANY, priority 2014, dated 2019)

Assays:
Assay type in all cases: in vivo
[1] = test system: rice (Oryza sativa); experiment: Test B flooded paddy test; conditions: Flood, scale of 0 to 100, 0 is no effect, 100 is complete control, 13 to 15 d
Method: (§1) Plant species in the flooded paddy test selected from rice (Oryza sativa), small-flower sedge, umbrella (small-flower umbrella sedge, Cyperus difformis), ducksalad (Heteranthera limosa), and barnyardgrass (Echinochloa crus-galli) were grown to the 2-leaf stage for testing. At time of treatment, test pots were flooded to 3 cm above the soil surface, treated by application of test compounds directly to the paddy water, and then maintained at that water depth for the duration of the test. Treated plants and controls were maintained in a greenhouse for 13 to 15 d, after which time all species were compared to controls and visually evaluated. Plant response ratings, summarized in Table B, are based on a scale of 0 to 100 where 0 is no effect and 100 is complete control. A dash (-) response means no test result.

[2] = test system: barnyardgrass (Echinochloa crus-galli); experiment: Test B flooded paddy test; conditions: Flood, scale of 0 to 100, 0 is no effect, 100 is complete control, 13 to 15 d
Method: as §1

[3] = test system: ducksalad (Heteranthera limosa); experiment: Test B flooded paddy test; conditions: Flood, scale of 0 to 100, 0 is no effect, 100 is complete control, 13 to 15 d
Method: as §1

[4] = test system: sedge, umbrella (small-flower umbrella sedge, Cyperus difformis); experiment: Test B flooded paddy test; conditions: Flood, scale of 0 to 100, 0 is no effect, 100 is complete control, 13 to 15 d
Method: as §1

[5] = test system: barnyardgrass (Echinochloa crus-galli); experiment: Test A pre-/postemergence greenhouse herbicide test; conditions: 0 to 100 scale (0 no effect, 100 complete control), approx. 10 d
Text: (§2) Seeds of plant species selected from barnyardgrass (Echinochloa crus-galli), crabgrass, Large (large crabgrass, Digitaria sanguinalis), foxtail, giant (giant foxtail, Setaria faberii), morningglory (Ipomoea spp.), pigweed (Amaranthus retroflexus), velvetleaf (Abutilon theophrasti), wheat (Triticum aestivum), and corn (Zea mays) were planted into a blend of loam soil and sand and treated preemergence with a directed soil spray using test chemicals formulated in a non-phytotoxic solvent mixture which included a surfactant. At the same time these species were also treated with postemergence applications of test chemicals formulated in the same manner.
(§3) Plants ranged in height from 2 to 10 cm and were in the one- to two-leaf stage for the postemergence treatment. Treated plants and untreated controls were maintained in a greenhouse for approximately 10 d, after which time all treated plants were compared to untreated controls and visually evaluated for injury. Plant response ratings, summarized in Table A, are based on a 0 to 100 scale where 0 is no effect and 100 is complete control. A dash (-) response means no test result.

[6] = test system: wheat (Triticum aestivum); experiment: as above; conditions: 0 to 100 scale (0 no effect, 100 complete control), approx. 10 d
Text: as §2, §3

[7] = test system: crabgrass, Large (large crabgrass, Digitaria sanguinalis); experiment: as above; conditions: 0 to 100 scale (0 no effect, 100 complete control), approx. 10 d
Text: as §2, §3

[8] = test system: morningglory (Ipomoea spp.); experiment: as above; conditions: 0 to 100 scale (0 no effect, 100 complete control), approx. 10 d
Text: as §2, §3

[9] = test system: pigweed (Amaranthus retroflexus); experiment: as above; conditions: 0 to 100 scale (0 no effect, 100 complete control), approx. 10 d
Text: as §2, §3

[10] = test system: corn (Zea mays); experiment: as above; conditions: 0 to 100 scale (0 no effect, 100 complete control), approx. 10 d
Text: as §2, §3

[11] = test system: foxtail, giant (giant foxtail, Setaria faberii); experiment: as above; conditions: 0 to 100 scale (0 no effect, 100 complete control), approx. 10 d
Text: as §2, §3

[12] = test system: velvetleaf (Abutilon theophrasti); experiment: as above; conditions: 0 to 100 scale (0 no effect, 100 complete control), approx. 10 d
Text: as §2, §3

Compound | Plant response rating, Barnyardgrass ([5]; Postemergence, 125 g ai/ha) | Plant response rating, Barnyardgrass ([5]; Postemergence, 500 g ai/ha) | Plant response rating, Wheat ([6]; Postemergence, 125 g ai/ha) | Plant response rating, Wheat ([6]; Postemergence, 500 g ai/ha) | Plant response rating, Wheat ([6]; Preemergence, 125 g ai/ha) | Plant response rating, Wheat ([6]; Preemergence, 500 g ai/ha) | Plant response rating, Crabgrass, Large ([7]; Postemergence, 125 g ai/ha) | Plant response rating, Crabgrass, Large ([7]; Postemergence, 500 g ai/ha) | Plant response rating, Crabgrass, Large ([7]; Preemergence, 125 g ai/ha) | Plant response rating, Crabgrass, Large ([7]; Preemergence, 500 g ai/ha) | Plant response rating, Morningglory ([8]; Postemergence, 125 g ai/ha) | Plant response rating, Morningglory ([8]; Postemergence, 500 g ai/ha) | Plant response rating, Morningglory ([8]; Preemergence, 125 g ai/ha) | Plant response rating, Morningglory ([8]; Preemergence, 500 g ai/ha) | Plant response rating, Pigweed ([9]; Postemergence, 125 g ai/ha) | Plant response rating, Pigweed ([9]; Postemergence, 500 g ai/ha) | Plant response rating, Pigweed ([9]; Preemergence, 125 g ai/ha) | Plant response rating, Pigweed ([9]; Preemergence, 500 g ai/ha) | Plant response rating, Corn ([10]; Postemergence, 125 g ai/ha) | Plant response rating, Corn ([10]; Postemergence, 500 g ai/ha) | also measured
Cc1cc(=O)n(-c2cccc(C(F)(F)F)c2)nc1Oc1ccnc(C(F)(F)F)c1 [Compound 4] | 10 | 20 | 10 | 20 | 0 | 10 | 30 | 60 | 90 | 100 | 40 | 70 | 20 | 40 | 100 | 100 | 100 | 100 | 10 | 30 | Plant response rating, Rice ([1]; 125 g ai/ha): 40; Plant response rating, Barnyardgrass ([2]; 125 g ai/ha): 20; Plant response rating, Ducksalad ([3]; 125 g ai/ha): 65; Plant response rating, Sedge, Umbrella ([4]; 125 g ai/ha): 70; Plant response rating, Barnyardgrass ([5]; Preemergence, 125 g ai/ha): 10; Plant response rating, Barnyardgrass ([5]; Preemergence, 500 g ai/ha): 40; Plant response rating, Corn ([10]; Preemergence, 125 g ai/ha): 0; Plant response rating, Corn ([10]; Preemergence, 500 g ai/ha): 10; Plant response rating, Foxtail, Giant ([11]; Postemergence, 125 g ai/ha): 30; Plant response rating, Foxtail, Giant ([11]; Postemergence, 500 g ai/ha): 70; Plant response rating, Foxtail, Giant ([11]; Preemergence, 125 g ai/ha): 70; Plant response rating, Foxtail, Giant ([11]; Preemergence, 500 g ai/ha): 100; Plant response rating, Velvetleaf ([12]; Postemergence, 125 g ai/ha): 90; Plant response rating, Velvetleaf ([12]; Postemergence, 500 g ai/ha): 100; Plant response rating, Velvetleaf ([12]; Preemergence, 125 g ai/ha): 10; Plant response rating, Velvetleaf ([12]; Preemergence, 500 g ai/ha): 20
O=c1c2c(c(Oc3ccnc(C(F)(F)F)c3)nn1-c1ccc(Cl)cc1)CCCC2 [Compound 7] | 0 | 10 | 0 | 10 | 0 | 0 | 10 | 10 | 0 | 40 | 10 | 20 | 0 | 0 | 90 | 100 | 20 | 50 | 10 | 10 | Plant response rating, Rice ([1]; 125 g ai/ha): 0; Plant response rating, Barnyardgrass ([2]; 125 g ai/ha): 0; Plant response rating, Ducksalad ([3]; 125 g ai/ha): 0; Plant response rating, Sedge, Umbrella ([4]; 125 g ai/ha): 0; Plant response rating, Barnyardgrass ([5]; Preemergence, 125 g ai/ha): 0; Plant response rating, Barnyardgrass ([5]; Preemergence, 500 g ai/ha): 40; Plant response rating, Corn ([10]; Preemergence, 125 g ai/ha): 0; Plant response rating, Corn ([10]; Preemergence, 500 g ai/ha): 0; Plant response rating, Foxtail, Giant ([11]; Postemergence, 125 g ai/ha): 10; Plant response rating, Foxtail, Giant ([11]; Postemergence, 500 g ai/ha): 10; Plant response rating, Foxtail, Giant ([11]; Preemergence, 125 g ai/ha): 0; Plant response rating, Foxtail, Giant ([11]; Preemergence, 500 g ai/ha): 30; Plant response rating, Velvetleaf ([12]; Postemergence, 125 g ai/ha): 20; Plant response rating, Velvetleaf ([12]; Postemergence, 500 g ai/ha): 40; Plant response rating, Velvetleaf ([12]; Preemergence, 125 g ai/ha): 0; Plant response rating, Velvetleaf ([12]; Preemergence, 500 g ai/ha): 0
Cc1cc(=O)n(-c2ccc(F)cc2)nc1Cc1cccc(C(F)(F)F)c1 [Compound 8] | 20 | 50 | 10 | 20 | 0 | 0 | 40 | 90 | 90 | 100 | 80 | 80 | 0 | 0 | 90 | 100 | 90 | 100 | 20 | 40 | Plant response rating, Rice ([1]; 250 g ai/ha): 25; Plant response rating, Barnyardgrass ([2]; 250 g ai/ha): 20; Plant response rating, Ducksalad ([3]; 250 g ai/ha): 0; Plant response rating, Sedge, Umbrella ([4]; 250 g ai/ha): 75; Plant response rating, Barnyardgrass ([5]; Preemergence, 125 g ai/ha): 20; Plant response rating, Barnyardgrass ([5]; Preemergence, 500 g ai/ha): 80; Plant response rating, Corn ([10]; Preemergence, 125 g ai/ha): 0; Plant response rating, Corn ([10]; Preemergence, 500 g ai/ha): 0; Plant response rating, Foxtail, Giant ([11]; Postemergence, 125 g ai/ha): 50; Plant response rating, Foxtail, Giant ([11]; Postemergence, 500 g ai/ha): 90; Plant response rating, Foxtail, Giant ([11]; Preemergence, 125 g ai/ha): 80; Plant response rating, Foxtail, Giant ([11]; Preemergence, 500 g ai/ha): 90; Plant response rating, Velvetleaf ([12]; Postemergence, 125 g ai/ha): 20; Plant response rating, Velvetleaf ([12]; Postemergence, 500 g ai/ha): 80; Plant response rating, Velvetleaf ([12]; Preemergence, 125 g ai/ha): 0; Plant response rating, Velvetleaf ([12]; Preemergence, 500 g ai/ha): 0
Cc1cc(Oc2cc(C(F)(F)F)ccn2)nn(-c2ccc(F)cc2)c1=O [Compound 9] | 0 | 0 | 0 | 0 | 0 | 0 | 0 | 0 | 0 | 0 | 0 | 0 | 0 | 0 | 0 | 0 | 0 | 0 | 0 | 0 | Plant response rating, Rice ([1]; 250 g ai/ha): 0; Plant response rating, Barnyardgrass ([2]; 250 g ai/ha): 0; Plant response rating, Ducksalad ([3]; 250 g ai/ha): 0; Plant response rating, Sedge, Umbrella ([4]; 250 g ai/ha): 0; Plant response rating, Corn ([10]; Preemergence, 125 g ai/ha): 0; Plant response rating, Corn ([10]; Preemergence, 500 g ai/ha): 0; Plant response rating, Foxtail, Giant ([11]; Postemergence, 125 g ai/ha): 0; Plant response rating, Foxtail, Giant ([11]; Postemergence, 500 g ai/ha): 0; Plant response rating, Foxtail, Giant ([11]; Preemergence, 125 g ai/ha): 0; Plant response rating, Foxtail, Giant ([11]; Preemergence, 500 g ai/ha): 0; Plant response rating, Velvetleaf ([12]; Postemergence, 125 g ai/ha): 0; Plant response rating, Velvetleaf ([12]; Postemergence, 500 g ai/ha): 0; Plant response rating, Velvetleaf ([12]; Preemergence, 125 g ai/ha): 0; Plant response rating, Velvetleaf ([12]; Preemergence, 500 g ai/ha): 0
